Results from patent US20210254056A1, “IDENTIFICATION AND TARGETED MODULATION OF GENE SIGNALING NETWORKS” (CAMP4 THERAPEUTICS CORPORATION, priority 2017, published 2021).
“Also recorded” adds a separate entry of the source.

Key:
COL1A1 gene = assay: RNA-seq gene expression after compound treatment, COL1A1; type: cell-based, human; settings: FIG. 11B; gene implicated in liver fibrosis
Text: FIG. 11B are ChIP-seq results for an insulated neighborhood and RNA-seq results showing modulation of the COL1A1 gene implicated in liver fibrosis by BIO inhibitor (MT-209), a Wnt pathway agonist.
(§1) In certain embodiments, hepatocytes are used to map a healthy cell population. The liver is a source of many known genetic disease and provides homogeneous primary tissue with high availability. Additionally, most toxicology is done in the liver, which provides drug toxicity insights. In some embodiments, different stimuli, such as those described herein, are contacted with a cell to induce various GSC responses in the hepatocytes. For example, small molecules may be administered to identify liver disease genes whose expression is modulated by the small molecules. These responses provide an understanding of GSCs in liver cells: genomic positions, protein composition, and genome architecture. Alternatively, blood or muscle tissue may be mapped as a healthy population, as a disease model, or as primary disease cells. About 20 million cells are generally needed for accurate ChIP (chromatin immunoprecipitation) analysis. Therefore, in some embodiments, erythroid cells may be used to develop a conditionally immortalized cell system to produce a sufficient biomass for ChIP analysis of a cell with a disease phenotype.

hepatocytes = settings: {}
SLC37A4 gene = assay: RNA-seq gene expression after compound treatment, insulated neighborhood containing SLC37A4; type: cell-based, human; settings: FIG. 8; gene implicated in glycogen storage disease 1b
FKBP5 = assay: RNA-seq gene expression after compound treatment, insulated neighborhood including FKBP5; type: cell-based, human; settings: FIG. 11A; gene implicated in immunosuppression
Text: as §1

PCSK9 gene = assay: RNA-seq gene expression after compound treatment, PCSK9; type: cell-based, human; settings: FIG. 11C and FIG. 13; gene implicated in hypercholesterolemia
Text: as §1

[1] = test system: primary human hepatocytes; assay: RNA-seq of primary human hepatocytes treated with 39 small molecules (pilot and validation)
[2] = test system: normal cord blood erythroblast cells; assay: qRT-PCR after constitutive (pLKO) shRNA knockdown in normal CD34+ cells; type: cell-based, human; settings: for RQ, ALAS2: relative quantification of ALAS2 expression vs control sh_NT; for RQ, BCLXL: relative quantification of BCLXL expression vs control sh_NT; for RQ, MYC: relative quantification of MYC expression vs control sh_NT; for RQ, P53: relative quantification of P53 expression vs control shNT; for RQ, RPL11: relative quantification of RPL11 expression vs control shNT; for RQ, p21: relative quantification of p21 expression vs control sh_NT; for RQ, p53: relative quantification of p53 expression vs control sh_NT; for increase in expression of p21: pLKO constitutive knockdown, compared to the level observed for the p53 knockdowns, qRT-PCR
Procedure: Conditionally immortalized cord blood CD34+ cells were transduced with the shRNA lentiviruses using the retronectin-transduction protocol (Clontech). Puromycin selection was performed 24-48 hours post-transduction. Cells were counted to monitor cell viability. After 12 days, which allowed for a large biomass, knockdown efficiency was analyzed. qRT-PCR was used to identify changes in mRNA, and Western blot was used to determine levels of protein depletion.
(§2) For RNA extraction, 1×10^6 cells were harvested in 500 μL of TRIZOL reagent (Thermo Scientific), and incubated for 5 minutes at room temperature. Then, 100 μL of chloroform was added to the cells, and the mixture was vortexed and then centrifuged at 12,000× gravity for 15 minutes. The aqueous phase was transferred to fresh tubes and one volume of 70% ethanol was added. The TRIZOL Plus RNA purification Kit (Thermo Scientific) was used for the remaining extraction protocol according to the manufacturer's instructions. For the conversion of RNA to cDNA the High Capacity cDNA RT kit (Thermo Scientific) was used according to the manufacturer's instructions. The cDNA was analyzed with qRT-PCR to determine the fold change of knockdown cells using Taqman Fast PCR mix and Applied Biosystems probes (Thermo Scientific).
shRNAs targeting RPS19, p53, or RPL11 were delivered to normal cord blood erythroblast cells using either the pLKO (constitutive) and pTRIPZ (inducible) plasmids described in Example 1. The mRNA expression of the p53 pathway proteins; progenitor factor GATA2; and differentiation factors HBB and GATA1 were measured by qRT-PCR. Cells not transduced with a shRNA as well as cells transduced with a non-targeting shRNA served as controls.
HBB is associated with differentiation of CD34^+ cells, and p21 is associated with the p53 pathway. […]
To determine the effect of p53 knockdown on expression of other genes, cells were also transduced with pLKO containing p53_sh4 or p53_sh5. To determine the effect of RPS19 knockdown on expression of other genes, cells were transduced with pLKO containing RPS19_sh1, RPS19_sh2, RPS19_sh3, RPS19_sh4, RPS19_sh5, and sh_NT as a control. The relative quantifications of expression of differentiation associated genes ALAS2 and HBB, immortalization factors BCLXL and MYC, and targets of interest p53 and RPS19 are shown in Table 79.

[3] = test system: CB-CI-IRES-CD34+ cell line; assay: qRT-PCR and knockdown efficiency of shRNAs in conditionally immortalized cord blood CD34+ cells; type: cell-based, human; settings: qRT-PCR; CB-CI-IRES-CD34+ cells transduced with pTRIPZ shRNA; B-ACTIN control; relative to pTRIPZ NT
Procedure: as §2
qRT-PCR was used to analyze expression of p53 pathway-associated genes p21, RPS19, and RPL11; differentiation marker HBB; and internal control B-ACTIN in the cord blood conditionally immortalized CD34+ (CB-CI-IRES-CD34+) cell line transduced with the pTRIPZ plasmid containing NT (Model 9), RPL11_sh1 (Model 4) and RPL11_sh2 (Model 5) for a RPL11 knockdown, and RPS19_sh1 (Model 6) and RPS19_sh2 (Model 7) for a RPS19 knockdown.
qRT-PCR was used to determine the levels of expression of ALAS2, GAPDH, GATA1, GATA2, HBB, and p53 in differentiated CB-CI-IRES cells using GAPDH as an internal control as shown in Table 86.
Gene expression was compared for CB-CI-IRES cells during expansion and differentiation. […] GAPDH was used as an internal control.
The efficiency of different shRNAs were tested in a conditionally immortalized cord blood erythroblast cell system to mimic DBA. The pTRIPZ was used to transduce these cells with sh1 (dox inducible shRPS19) or sh2 (dox inducible shRPS19), and pLKO was used to transduce a group of cells with sh5 (shRPS19). qRT-PCR was used to determine the level of gene expression in RPS19 mRNA knockdown in each group of cells. The percent of knockdown is shown in Table 90 after 1 week (T1), 2 weeks (T2), and 3 weeks (T3) for each shRNA.

TF1 RPS19 KD cells = assay: Dose titration of compounds into RPS19 KD TF1 cells (p53 by qRT-PCR, viability ATP assay); type: cell-based; settings: after transduction with constitutive pLKO shRNA plasmid
Procedure: The concentration of the compounds needed to observe a rescued DBA phenotype in TF1 RPS19 KD cells was determined via qRT-PCR analysis of p53 levels. […] Nine different cell lines were used. […] Cells were collected in separate tubes in a concentration of 1000 cells/μL to reach a concentration of 50,000 cells/50 μL per well. Cell were centrifuged at 1,200 rpm for 5 minutes. Then, the media was aspirated and cells were resuspended in RPMI+GCMSF medium.
For the preparation of Dose 1 (final concentration on plate 25 μM), a 50 μM solution was made by adding 300 μL of […] to 300 μL of RPM1+GCMSF+2% DMSO (final 1% DMSO). The 50 μM solution was further diluted to 2× when added with the cells into a well, resulting in a final concentration of 25 μM. […] DMSO 1% was used for each cell type as DMSO control.
A 96-well plate was used for analysis of each dose on each cell type. Fifty μL of each cell type and 50 μL of a diluted compound are added to the corresponding wells for a total of 100 μL RPMI+GCMSF+1% DMSO, with 50,000 cells/well. The following day, 50 μL for RNA (25,000 cells) and 50 μL for viability ATP assay (25,000 cells) were collected from each well.
Dose titration was performed as described in Example 1. […] Phenotype rescue was determined by measuring p53 levels by qRT-PCR analysis. […]

[4] = relative quantification of HBB expression vs control shNT, pLKO constitutive shRNA, GAPDH internal control, Table 78
[5] = relative quantification of HBB expression vs control sh_NT, pLKO shRNA, B-ACTIN, Table 79
[6] = pLKO constitutive shRNA, GAPDH internal control, Table 78
[7] = relative quantification of RPS19 expression vs control shNT, pLKO constitutive shRNA, GAPDH internal control, Table 78
[8] = relative quantification of RPS19 expression vs control sh_NT, pLKO shRNA, B-ACTIN, Table 79

Compound	RQ, ALAS2 ([2]; pLKO shRNA, B-ACTIN, Table 79)	RQ, BCLXL ([2]; pLKO shRNA, B-ACTIN, Table 79)	RQ, HBB [2, 4]	RQ, HBB [2, 5]	RQ, MYC ([2]; pLKO shRNA, B-ACTIN, Table 79)	RQ, P53 [2, 6]	RQ, RPL11 [2, 6]	RQ, RPS19 [2, 7]	RQ, RPS19 [2, 8]	RQ, p21 ([2]; pLKO shRNA, B-ACTIN, Table 79)	RQ, p53 ([2]; pLKO shRNA, B-ACTIN, Table 79)	Cell density (TF1 RPS19 KD cells)	increase in expression of p21 [2]	also measured
O=C1Nc2cc(Br)ccc2/C1=C1/Nc2ccccc2/C1=N\O [BIO inhibitor]														expression of the COL1A1 gene (RNA-seq) (COL1A1 gene): modulation
Cn1cncc1[C@@](N)(c1ccc(Cl)cc1)c1ccc2c(c1)c(-c1cccc(Cl)c1)cc(=O)n2C [Tipifarnib]														# of genes having significantly altered expression (hepatocytes): 34
C[C@]12C=CC(=O)C=C1CC[C@@H]1[C@@H]2C(=O)C[C@@]2(C)[C@H]1CC[C@]2(O)C(=O)CO [prednisone]														expression of the SLC37A4 gene (RNA-seq) (SLC37A4 gene): upregulation; expression of FKBP5 (RNA-seq) (FKBP5): upregulates; expression of the PCSK9 gene (RNA-seq) (PCSK9 gene): modulation; significant modulation of gene expression ([1]; RNA-seq, p-value≤0.05, primary human hepatocytes, the modulated genes are listed in the block): significantly (p-value≤0.05) modulate; gene upregulated by the compound ([1]; RNA-seq, treated cells compared to vehicle control, gene named in the value): upregulate the SLC37A4 gene; also recorded: SLC37A4 was significantly upregulated; also recorded: upregulate FKPP5; Number (#) of genes having significantly changed expression ([1]; pilot RNA-seq study of Example 2, significance: FPKM≥0.5, log 2(fold change)≥1, q-value ≤0.05): 247
RPS19_sh1 (CTACGATGAGAACTGGTTCT; expressed or natural sequence; listed as Homo sapiens)	0.02	0.34	0.04	0.00	0.52	1.34	0.74	0.59	0.47	0.53	0.65			RQ of HBB [3]: 2.28; RQ of RPL11 [3]: 1.52; RQ of p21 [3]: 1.35
RPS19_sh4: shRNA targeting RPS19 in the constitutive pLKO plasmid, SEQ ID NO 32575 (GCTTGCTCCCTACGATGAGAA; listed as Homo sapiens)	0.16	0.87	0.42	0.03	1.03	1.24	1.02	1.54	0.43	12.78	1.74	124,000 cells/mll	12.8 fold	
RPS19_sh5: shRNA targeting RPS19 in the constitutive pLKO plasmid, SEQ ID NO 32576 (CGGCGTCATGCCCAGCCACTT; listed as Homo sapiens)	1.51	0.99	0.75	0.15	1.43	1.41	1.09	0.65	0.15	5.75	0.74	962,000 cells/mll	5.8 fold	
